In patent US10141017B2, “Lubricant for magnetic recording medium, and magnetic recording medium” (Dexerials Corporation, priority 2015, dated 2018):
Where two headings read alike, the source gives them in different places.

Tests used:
[1] = Measurement of thermal decomposition temperature (TG-DTA, 5% weight reduction); type: physicochemical
Procedure: As measuring conditions, the heating speed was 10° C./min and the air flow rate was 200 mL/min.

[2] = Solubility to fluorine-based solvent; details: 25° C.
Procedure: Various fluorine-based solvents were each added in a manner that a concentration was to be 1% by mass, and the resultant was stirred with maintaining the temperature at 25° C. The solubility was evaluated based on the following evaluation criteria.
• 1: The ionic liquid was dissolved in the fluorine-based solvent, and no precipitation was generated even after leaving the solution to stand. • 2: The ionic liquid was insoluble to the fluorine-based solvent, or was partially dissolved but precipitation was generated when the solution was left to stand. <<Friction Properties>> —Production of Lubricant-Coated Hard Disk—

[3] = Comprehensive evaluation (thermal decomposition temperature, friction properties, solubility)
[4] = TG-DTA, heating speed 10° C./min, air flow 200 mL/min

Compound | Thermal decomposition (5% weight reduction) temperature [1, 4] | Solubility to fluorine-based solvent ([2]; Novec 7100, 1% by mass) | Solubility to fluorine-based solvent ([2]; Novec 7200, 1% by mass) | Solubility to fluorine-based solvent ([2]; Novec 7300, 1% by mass) | Solubility to fluorine-based solvent ([2]; Vertrel XF, 1% by mass) | Thermal decomposition (5% weight reduction) temperature [1] | Thermal stability and friction coefficient (in words) [3]
NCCC(F)(F)C(F)(F)C(F)(F)C(F)(F)C(F)(F)C(F)(F)C(F)(F)C(F)(F)F.O=C(O)C(F)(F)OC(F)(F)C(F)(F)OC(F)(F)C(F)(F)OC(F)(F)C(F)(F)C(F)(F)C(F)(F)F [Ex. 4, 1H,1H,2H,2H-perfluorodecylamine-perfluoro-3,6,9-trioxatridecanoic acid salt] | 169 °C | 1 | 1 | 1 | 1 |  | 
NCCC(F)(F)C(F)(F)C(F)(F)C(F)(F)C(F)(F)C(F)(F)C(F)(F)C(F)(F)F.O=S(=O)(O)CCCOCC(F)(F)OC(F)(F)C(F)(F)OC(F)(F)C(F)(F)OC(F)(F)C(F)(F)C(F)(F)C(F)(F)F [Ex. 2, 1H,1H,2H,2H-perfluorodecylamine-PFTEG sulfonic acid salt] |  |  |  |  |  | 254 °C | 
NCCOCC(F)(F)OC(F)(F)C(F)(F)OC(F)(F)C(F)(F)OC(F)(F)C(F)(F)C(F)(F)C(F)(F)F.O=S(=O)(NS(=O)(=O)C(F)(F)C(F)(F)C(F)(F)C(F)(F)F)C(F)(F)C(F)(F)C(F)(F)C(F)(F)F [Ex. 5, PFTEG amine-bis(perfluorobutanesulfonyl)imide salt] | 291 °C | 1 | 1 | 1 | 1 |  | 
NCCOCC(F)(F)OC(F)(F)C(F)(F)OC(F)(F)C(F)(F)OC(F)(F)C(F)(F)C(F)(F)C(F)(F)F.O=S(=O)(O)CCCOCC(F)(F)OC(F)(F)C(F)(F)OC(F)(F)C(F)(F)OC(F)(F)C(F)(F)C(F)(F)C(F)(F)F [Ex. 1, PFTEG amine-PFTEG sulfonic acid salt] | 246 °C | 1 | 1 | 1 | 1 |  | 
octylamine-PFTEG sulfonic Acid Salt [Comp. Ex. 1, reference compound] | 276 °C |  |  |  |  |  | 
octadecylamine-perfluoroheptanoic Acid Salt [compound 3, reference compound] | 204 °C | 2 | 2 | 2 | 2 |  | 
NCCOCC(F)(F)OC(F)(F)C(F)(F)OC(F)(F)C(F)(F)OC(F)(F)C(F)(F)C(F)(F)C(F)(F)F.O=S(=O)(O)C(F)(F)C(F)(F)C(F)(F)C(F)(F)F [Ex. 3, PFTEG amine-perfluorobutane sulfonic acid salt] | 302 °C | 1 | 1 | 1 | 1 |  | more excellent
NCCC(F)(F)C(F)(F)C(F)(F)C(F)(F)C(F)(F)C(F)(F)C(F)(F)C(F)(F)F.O=S(=O)(O)C(F)(F)C(F)(F)C(F)(F)C(F)(F)F [compound 2, 1H,1H,2H,2H-perfluorodecylamine-perfluorobutane sulfonic acid salt, reference compound] | 308 °C | 2 | 2 | 2 | 2 |  | 
